# Results reported in patent publication US8697739B2, “Bicyclic acetyl-CoA carboxylase inhibitors and uses thereof” (Novartis AG, priority 2010, dated 2014).
# Target: T1, human acetyl-CoA carboxylase 2 (ACC2) (Homo sapiens, UniProt O00763)
# T1 construct: The cDNA encoding amino acids 144 to 2458 of human acetyl-CoA carboxylase 2; made in house; host or cells: Sf9 insect cells (baculovirus, pFastBac1)
# Experiment: Acetyl-CoA carboxylase enzyme assay (malonyl-CoA formation by LC/MS/MS)
# Type: biochemical
# Conditions: recombinant human ACC2 (aa 144-2458); read-out: IC50 ACC2
# Procedure, shortened: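 Malonyl-CoA formation was read by LC/MS/MS MRM against a [13C3]-malonyl-CoA internal standard, after acetic acid quench. The enzyme was baculovirus/Sf9-expressed human ACC2 residues 144–2458, given 15 minutes room-temperature compound preincubation in HEPES pH 7.5 buffer with MgCl2, citrate and DTT. Substrate solution held 50 μM acetyl-CoA, 120 μM ATP and 2 mM KHCO3.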
# T1 sequence (O00763 144-2458): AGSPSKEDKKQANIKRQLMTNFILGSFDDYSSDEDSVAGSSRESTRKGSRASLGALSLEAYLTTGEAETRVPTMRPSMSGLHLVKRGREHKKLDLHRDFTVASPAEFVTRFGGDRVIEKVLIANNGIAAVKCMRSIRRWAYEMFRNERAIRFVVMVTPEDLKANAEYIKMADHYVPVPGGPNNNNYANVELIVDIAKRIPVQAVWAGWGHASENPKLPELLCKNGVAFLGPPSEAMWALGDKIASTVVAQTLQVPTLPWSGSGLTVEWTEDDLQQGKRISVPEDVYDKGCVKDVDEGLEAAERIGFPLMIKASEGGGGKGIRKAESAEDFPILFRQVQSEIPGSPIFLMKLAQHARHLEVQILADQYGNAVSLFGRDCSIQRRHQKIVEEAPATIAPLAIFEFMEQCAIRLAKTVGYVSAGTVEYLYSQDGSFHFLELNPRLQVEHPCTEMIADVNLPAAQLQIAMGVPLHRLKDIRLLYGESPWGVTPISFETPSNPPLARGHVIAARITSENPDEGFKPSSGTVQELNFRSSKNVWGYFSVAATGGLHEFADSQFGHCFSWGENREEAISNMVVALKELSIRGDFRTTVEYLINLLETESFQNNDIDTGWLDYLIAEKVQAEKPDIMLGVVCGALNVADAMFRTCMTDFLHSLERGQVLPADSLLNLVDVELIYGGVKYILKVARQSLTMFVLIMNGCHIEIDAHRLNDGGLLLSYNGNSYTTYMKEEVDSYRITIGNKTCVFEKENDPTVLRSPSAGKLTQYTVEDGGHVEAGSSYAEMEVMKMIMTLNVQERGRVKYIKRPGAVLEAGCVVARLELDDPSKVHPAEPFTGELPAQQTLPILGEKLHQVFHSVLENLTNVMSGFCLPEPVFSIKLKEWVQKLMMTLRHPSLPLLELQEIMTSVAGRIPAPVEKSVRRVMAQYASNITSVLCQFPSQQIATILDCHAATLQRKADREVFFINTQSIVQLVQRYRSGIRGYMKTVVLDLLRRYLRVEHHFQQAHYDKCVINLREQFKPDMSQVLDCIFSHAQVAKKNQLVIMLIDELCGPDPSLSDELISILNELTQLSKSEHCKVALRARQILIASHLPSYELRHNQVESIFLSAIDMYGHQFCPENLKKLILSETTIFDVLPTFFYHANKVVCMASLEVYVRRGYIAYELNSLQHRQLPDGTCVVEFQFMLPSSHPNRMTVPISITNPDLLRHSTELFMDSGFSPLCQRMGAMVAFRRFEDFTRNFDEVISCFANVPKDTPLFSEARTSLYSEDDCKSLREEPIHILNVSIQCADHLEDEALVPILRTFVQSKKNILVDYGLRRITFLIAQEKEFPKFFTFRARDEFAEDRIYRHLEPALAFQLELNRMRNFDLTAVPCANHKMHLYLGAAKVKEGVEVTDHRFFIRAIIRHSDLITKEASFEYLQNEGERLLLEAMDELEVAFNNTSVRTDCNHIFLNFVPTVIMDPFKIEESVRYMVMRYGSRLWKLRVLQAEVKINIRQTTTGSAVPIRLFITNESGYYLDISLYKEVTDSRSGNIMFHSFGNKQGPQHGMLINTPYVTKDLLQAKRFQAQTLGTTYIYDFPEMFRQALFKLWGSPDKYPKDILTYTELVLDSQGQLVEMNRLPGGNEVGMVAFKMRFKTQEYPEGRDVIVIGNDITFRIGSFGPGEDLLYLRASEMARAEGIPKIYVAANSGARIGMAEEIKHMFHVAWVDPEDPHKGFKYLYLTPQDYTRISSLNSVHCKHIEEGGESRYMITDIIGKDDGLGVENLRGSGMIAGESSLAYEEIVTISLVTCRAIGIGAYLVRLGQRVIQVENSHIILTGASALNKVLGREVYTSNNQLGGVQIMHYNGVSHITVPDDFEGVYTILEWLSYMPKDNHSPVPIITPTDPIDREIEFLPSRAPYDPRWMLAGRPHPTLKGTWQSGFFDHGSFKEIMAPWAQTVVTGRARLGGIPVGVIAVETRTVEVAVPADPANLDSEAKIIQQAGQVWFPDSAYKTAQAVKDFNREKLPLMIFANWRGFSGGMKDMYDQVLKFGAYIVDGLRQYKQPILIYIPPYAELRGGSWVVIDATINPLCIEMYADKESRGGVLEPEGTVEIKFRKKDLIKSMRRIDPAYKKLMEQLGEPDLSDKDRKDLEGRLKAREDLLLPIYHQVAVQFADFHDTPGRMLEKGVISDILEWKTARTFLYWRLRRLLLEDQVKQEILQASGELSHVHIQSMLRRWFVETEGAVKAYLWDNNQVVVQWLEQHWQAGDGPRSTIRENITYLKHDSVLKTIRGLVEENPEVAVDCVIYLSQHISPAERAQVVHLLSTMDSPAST
row,Structure (SMILES),IC50 [nM]
1,"Cn1c(-c2ccc(CCC(=O)O)cc2)cc2ccc(S(=O)(=O)N[C@H]3CC[C@H](C(=O)N4CCCC4C(C)(C)C)CC3)cc21 (stereo partly shown) [Example 395, 3-(4-(6-(N-((1r,4r)-4-(2-tert-butylpyrrolidine-1-carbonyl)cyclohexyl)sulfamoyl)-1-methyl-1H-indol-2-yl)phenyl)propanoic acid]",< 10
2,"COC(=O)C(C)(C)[C@@H](NC(=O)[C@H]1CC[C@H](NS(=O)(=O)c2ccc3cc(C4CC4)n(C)c3c2)CC1)c1ccccc1 [Example 396, (S)-methyl 3-((1r,4S)-4-(2-cyclopropyl-1-methyl-1H-indole-6-sulfonamido)cyclohexanecarboxamido)-2,2-dimethyl-3-phenylpropanoate]",10
3,"Cn1c(-c2ccc(CCC(=O)O)cc2)cc2ccc(S(=O)(=O)N[C@H]3CC[C@H](C(=O)N4CCC[C@@H]4C(F)(F)F)CC3)cc21 [Example 397, 3-(4-(1-methyl-6-(N-((1R,4r)-4-((R)-2-(trifluoromethyl)pyrrolidine-1-carbonyl)cyclohexyl)sulfamoyl)-1H-indol-2-yl)phenyl)propanoic acid]",< 10
4,"C[C@@H](OC(=O)C1(C)CCC(NS(=O)(=O)c2ccc3c(ccn3C)c2)CC1)c1ccccc1 (stereo partly drawn) [Example 398, (R)-1-phenylethyl 1-methyl-4-(1-methyl-1H-indole-5-sulfonamido)cyclohexanecarboxylate]",< 10
5,"Cn1c(-c2ccc(CCC(=O)O)cc2)cc2ccc(S(=O)(=O)N[C@H]3CC[C@H](C(=O)N4CCC[C@H]4C(C)(C)C)CC3)cc21 [Example 399, 3-(4-(6-(N-((1S,4r)-4-((S)-2-tert-butylpyrrolidine-1-carbonyl)cyclohexyl)sulfamoyl)-1-methyl-1H-indol-2-yl)phenyl)propanoic acid]",340
6,"Cn1c(-c2ccc(CCC(=O)O)cc2)cc2ccc(S(=O)(=O)N[C@H]3CC[C@H](C(=O)N4CCC[C@@H]4C(C)(C)C)CC3)cc21 [Example 400, 3-(4-(6-(N-((1R,4r)-4-((R)-2-tert-butylpyrrolidine-1-carbonyl)cyclohexyl)sulfamoyl)-1-methyl-1H-indol-2-yl)phenyl)propanoic acid]",< 10
7,"CC1COCCN1C(=O)[C@H]1CC[C@H](NS(=O)(=O)c2ccc3c(C#N)c(C4CC4)n(C)c3c2)CC1 (stereo partly shown) [Example 401, 3-cyano-2-cyclopropyl-1-methyl-N-((1r,4r)-4-(3-methylmorpholine-4-carbonyl)cyclohexyl)-1H-indole-6-sulfonamide]",25
8,"Cn1c(-c2ccccc2)cc2ccc(S(=O)(=O)N[C@H]3CC[C@H](C(=O)N4CCCOCC4)CC3)cc21 [Example 402, N-((1r,4r)-4-(1,4-oxazepane-4-carbonyl)cyclohexyl)-1-methyl-2-phenyl-1H-indole-6-sulfonamide]",130
9,"Cn1c(-c2ccccc2)cc2ccc(S(=O)(=O)N[C@H]3CC[C@H](C(=O)N4CCC[C@@H](C(C)(C)O)C4)CC3)cc21 [Example 403, N-((1R,4r)-4-((R)-3-(2-hydroxypropan-2-yl)piperidine-1-carbonyl)cyclohexyl)-1-methyl-2-phenyl-1H-indole-6-sulfonamide]",10
10,"Cn1c(-c2ccccc2)cc2ccc(S(=O)(=O)N[C@H]3CC[C@H](C(=O)N4CCC[C@H](C(C)(C)O)C4)CC3)cc21 [Example 404, N-((1S,4r)-4-((S)-3-(2-hydroxypropan-2-yl)piperldine-1-carbonyl)cyclohexyl)-1-methyl-2-phenyl-1H-indole-6-sulfonamide]",< 10
11,"C[C@H]1CCCCN1C(=O)[C@H]1CC[C@H](NS(=O)(=O)c2ccc3cc(-c4ccccc4)n(C)c3c2)CC1 [Example 405, 1-methyl-N-((1S,4r)-4-((S)-2-methylpiperidine-1-carbonyl)cyclohexyl)-2-phenyl-1H-indole-6-sulfonamide]",35
12,"Cn1c(-c2ccccc2)cc2ccc(S(=O)(=O)N[C@H]3CC[C@H](C(=O)N4CCN(C5CC5)CC4)CC3)cc21 [Example 406, N-((1r,4r)-4-(4-cyclopropylpiperazine-1-carbonyl)cyclohexyl)-1-methyl-2-phenyl-1H-indole-6-sulfonamide]",985
13,"COC(=O)C(C)(C)[C@@H](NC(=O)[C@H]1CC[C@H](NS(=O)(=O)c2ccc3cc(-c4ccccc4)n(C)c3c2)CC1)c1ccccc1 [Example 407, (S)-methyl 2,2-dimethyl-3-((1r,4S)-4-(1-methyl-2-phenyl-1H-indole-6-sulfonamido)cyclohexanecarboxamido)-3-phenylpropanoate]",< 10
14,"COC[C@H]1CCCN1C(=O)[C@H]1CC[C@H](NS(=O)(=O)c2ccc3cc(-c4ccccc4)n(C)c3c2)CC1 [Example 408, N-((1R,4r)-4-((R)-2-(methoxymethyl)pyrrolidine-1-carbonyl)cyclohexyl)-1-methyl-2-phenyl-1H-indole-6-sulfonamide]",20
15,"Cn1c(C2CC2)cc2ccc(S(=O)(=O)N[C@H]3CC[C@H](C(=O)N[C@@H](c4ccccc4)C(C)(C)C(=O)O)CC3)cc21 [Example 409, (S)-3-((1r,4S)-4-(2-cyclopropyl-1-methyl-1H-indole-6-sulfonamido)cyclohexanecarboxamido)-2,2-dimethyl-3-phenylpropanoic acid]",< 10
16,"C[C@H]1CCCCN1C(=O)[C@H]1CC[C@H](NS(=O)(=O)c2ccc3cc(-c4ccc(CCC(=O)O)cc4)n(C)c3c2)CC1 [Example 410, 3-(4-(1-methyl-6-(N-((1S,4r)-4-((S)-2-methylpiperidine-1-carbonyl)cyclohexyl)sulfamoyl)-1H-indol-2-yl)phenyl)propanoic acid]",20
17,"Cn1c(-c2ccccc2)cc2ccc(S(=O)(=O)N[C@H]3CC[C@H](C(=O)N[C@@H](c4ccccc4)C(C)(C)C(=O)O)CC3)cc21 [Example 411, (S)-2,2-dimethyl-3-((1r,4S)-4-(1-methyl-2-phenyl-1H-indole-6-sulfonamido)cyclohexanecarboxamido)-3-phenylpropanoic acid]",< 10
18,"C[C@H]1CN(C)CCN1C(=O)[C@H]1CC[C@H](NS(=O)(=O)c2ccc3cc(-c4ccccc4)n(C)c3c2)CC1 [Example 412, N-((1S,4r)-4-((S)-2,4-dimethylpiperazine-1-carbonyl)cyclohexyl)-1-methyl-2-phenyl-1H-indole-6-sulfonamide]",240
19,"C[C@@H]1COCCN1C(=O)[C@H]1CC[C@H](NS(=O)(=O)c2ccc3c(C#N)c(C4CC4)n(C)c3c2)CC1 [Example 413, 3-cyano-2-cyclopropyl-1-methyl-N-((1R,4r)-4-((R)-3-methylmorpholine-4-carbonyl)cyclohexyl)-1H-indole-6-sulfonamide]",50
20,"C[C@H]1COCCN1C(=O)[C@H]1CC[C@H](NS(=O)(=O)c2ccc3c(C#N)c(C4CC4)n(C)c3c2)CC1 [Example 414, 3-cyano-2-cyclopropyl-1-methyl-N-((1S,4r)-4-((S)-3-methylmorpholine-4-carbonyl)cyclohexyl)-1H-indole-6-sulfonamide]",80
21,"C[C@H]1CCCCN1C(=O)[C@H]1CC[C@H](NS(=O)(=O)c2ccc3c(C#N)c(-c4ccc(CCC(=O)O)cc4)n(C)c3c2)CC1 [Example 415, 3-(4-(3-cyano-1-methyl-6-(N-((1S,4r)-4-((S)-2-methylpiperidine-1-carbonyl)cyclohexyl)sulfamoyl)-1H-indol-2-yl)phenyl)propanoic acid]",< 10
22,"C[C@H]1CCCCN1C(=O)[C@H]1CC[C@H](NS(=O)(=O)c2ccc3c(Cl)c(-c4ccc(CCC(=O)O)cc4)n(C)c3c2)CC1 [Example 416, 3-(4-(3-chloro-1-methyl-6-(N-((1S,4r)-4-((S)-2-methylpiperidine-1-carbonyl)cyclohexyl)sulfamoyl)-1H-indol-2-yl)phenyl)propanoic acid]",< 10
23,"C[C@@H]1CN(C(=O)[C@H]2CC[C@H](NS(=O)(=O)c3ccc4c(C#N)c(C5CC5)n(C)c4c3)CC2)C[C@H](C)O1 [Example 417, 3-cyano-2-cyclopropyl-N-((1R,4r)-4-((2S,6R)-2,6-dimethylmorpholine-4-carbonyl)cyclohexyl)-1-methyl-1H-indole-6-sulfonamide]",80
24,"COC[C@H]1CCCN1C(=O)[C@H]1CC[C@H](NS(=O)(=O)c2ccc3c(C#N)c(C4CC4)n(C)c3c2)CC1 [Example 418, 3-cyano-2-cyclopropyl-N-((1R,4r)-4-((R)-2-(methoxymethyl)pyrrolidine-1-carbonyl)cyclohexyl)-1-methyl-1H-indole-6-sulfonamide]",65
25,"C[C@@H]1CN(C(=O)[C@H]2CC[C@H](NS(=O)(=O)c3ccc4cc(-c5ccccc5)n(C)c4c3)CC2)C[C@H](C)O1 [Example 419, N-((1R,4r)-4-((2S,6R)-2,6-dimethylmorpholine-4-carbonyl)cyclohexyl)-1-methyl-2-phenyl-1H-indole-6-sulfonamide]",35
26,"CCOC(=O)[C@H]1CCCN1C(=O)[C@H]1CC[C@H](NS(=O)(=O)c2ccc3cc(-c4ccccc4)n(C)c3c2)CC1 [Example 420, (R)-ethyl 1-((1r,4R)-4-(1-methyl-2-phenyl-1H-indole-6-sulfonamido)cyclohexanecarbonyl)pyrrolidine-2-carboxylate]",720
27,"C[C@H]1COCCN1C(=O)[C@H]1CC[C@H](NS(=O)(=O)c2ccc3c(C#N)c(C4CC4)n(C)c3c2)CC1 [Example 421, 3-cyano-2-cyclopropyl-1-methyl-N-((1S,4r)-4-((S)-3-methylmorpholine-4-carbonyl)cyclohexyl)-1H-indole-6-sulfonamide]",50
28,"C[C@H]1COCCN1C(=O)[C@H]1CC[C@H](NS(=O)(=O)c2ccc3cc(C4CC4)n(C)c3c2)CC1 [Example 422, 2-cyclopropyl-1-methyl-N-((1S,4r)-4-((S)-3-methylmorpholine-4-carbonyl)cyclohexyl)-1H-indole-6-sulfonamide]",285
